Results: PubChem BioAssay (NCI)
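GI50 = concentration required for 50% inhibition of growth. TGI: total growth inhibition.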

Legend:
Assay in all cases: growth of human tumour cells (NCI), 384-well format
SK-OV-3 ovarian = tested on: SK-OV-3 ovarian
MDA-MB-435 melanoma = tested on: MDA-MB-435 melanoma
TK-10 renal = tested on: TK-10 renal
M14 melanoma = tested on: M14 melanoma
HOP-92 NSCLC = tested on: HOP-92 NSCLC
SR leukemia = tested on: SR leukemia
SNB-75 CNS = tested on: SNB-75 CNS
IGROV1 ovarian = tested on: IGROV1 ovarian
NCI-H522 lung = tested on: NCI-H522 lung
NCI-H460 NSCLC = tested on: NCI-H460 NSCLC
A498 renal = tested on: A498 renal
MDA-MB-468 breast = tested on: MDA-MB-468 breast
NCI/ADR-RES ovarian = tested on: NCI/ADR-RES ovarian
A549 NSCLC = tested on: A549 NSCLC
UACC-62 melanoma = tested on: UACC-62 melanoma
SNB-19 CNS = tested on: SNB-19 CNS
CAKI-1 renal = tested on: CAKI-1 renal
NCI-H226 lung = tested on: NCI-H226 lung
RXF 393 renal = tested on: RXF 393 renal
SF-295 CNS = tested on: SF-295 CNS
PC-3 prostate = tested on: PC-3 prostate
COLO 205 colon = tested on: COLO 205 colon
HCT-15 colon = tested on: HCT-15 colon
MOLT-4 leukemia = tested on: MOLT-4 leukemia
NCI-H322M lung = tested on: NCI-H322M lung
MDA-MB-231 breast = tested on: MDA-MB-231 breast
LOX IMVI melanoma = tested on: LOX IMVI melanoma
SK-MEL-28 melanoma = tested on: SK-MEL-28 melanoma
RPMI-8226 leukemia = tested on: RPMI-8226 leukemia
EKVX NSCLC = tested on: EKVX NSCLC
KM12 colon = tested on: KM12 colon
DU-145 prostate = tested on: DU-145 prostate
HS 578T breast = tested on: HS 578T breast
T-47D breast = tested on: T-47D breast
MALME-3M melanoma = tested on: MALME-3M melanoma
HCC-2998 colon = tested on: HCC-2998 colon
UO-31 renal = tested on: UO-31 renal
HCT-116 colon = tested on: HCT-116 colon
HL-60(TB) leukemia = tested on: HL-60(TB) leukemia
SF-539 CNS = tested on: SF-539 CNS
UACC-257 melanoma = tested on: UACC-257 melanoma
U251 glioblastoma = tested on: U251 glioblastoma
SF-268 CNS = tested on: SF-268 CNS
MCF7 breast = tested on: MCF7 breast
SN12C renal = tested on: SN12C renal
786-0 renal = tested on: 786-0 renal
NCI-H23 lung = tested on: NCI-H23 lung
OVCAR-4 ovarian = tested on: OVCAR-4 ovarian
HOP-62 NSCLC = tested on: HOP-62 NSCLC
CCRF-CEM leukemia = tested on: CCRF-CEM leukemia
SW-620 colon = tested on: SW-620 colon
HT29 colon = tested on: HT29 colon
SK-MEL-5 melanoma = tested on: SK-MEL-5 melanoma
ACHN renal = tested on: ACHN renal
OVCAR-8 ovarian = tested on: OVCAR-8 ovarian
OVCAR-3 ovarian = tested on: OVCAR-3 ovarian
K-562 leukemia = tested on: K-562 leukemia
BT-549 breast = tested on: BT-549 breast

Compound: O=C(NOCCO)c1ccc2cncn2c1Nc1ccc(I)cc1F
- GI50 (SK-OV-3 ovarian): 2.76 µM
- TGI (SK-OV-3 ovarian): 18.7 µM
- GI50 (MDA-MB-435 melanoma): < 0.01 µM
- TGI (MDA-MB-435 melanoma): 21.1 µM
- GI50 (TK-10 renal): 0.0704 µM
- TGI (TK-10 renal): 27.4 µM
- GI50 (M14 melanoma): < 0.01 µM
- TGI (M14 melanoma): < 0.01 µM
- GI50 (HOP-92 NSCLC): 0.012 µM
- TGI (HOP-92 NSCLC): 0.198 µM
- GI50 (SR leukemia): 0.087 µM
- TGI (SR leukemia): 2.39 µM
- GI50 (SNB-75 CNS): 0.34 µM
- TGI (SNB-75 CNS): 15.7 µM
- GI50 (IGROV1 ovarian): < 0.01 µM
- TGI (IGROV1 ovarian): 12.6 µM
- GI50 (NCI-H522 lung): 11.8 µM
- TGI (NCI-H522 lung): 26.4 µM
- GI50 (NCI-H460 NSCLC): < 0.01 µM
- TGI (NCI-H460 NSCLC): 22.1 µM
- GI50 (A498 renal): 11.9 µM
- TGI (A498 renal): 32.4 µM
- GI50 (MDA-MB-468 breast): 6.92 µM
- TGI (MDA-MB-468 breast): 21.5 µM
- GI50 (NCI/ADR-RES ovarian): 23.1 µM
- TGI (NCI/ADR-RES ovarian): > 100 µM
- GI50 (A549 NSCLC): 0.026 µM
- TGI (A549 NSCLC): 11.1 µM
- GI50 (UACC-62 melanoma): < 0.01 µM
- TGI (UACC-62 melanoma): 0.0159 µM
- GI50 (SNB-19 CNS): 0.0878 µM
- TGI (SNB-19 CNS): 20.6 µM
- GI50 (CAKI-1 renal): 0.0109 µM
- TGI (CAKI-1 renal): 13.3 µM
- GI50 (NCI-H226 lung): 1.01 µM
- TGI (NCI-H226 lung): 18.3 µM
- GI50 (RXF 393 renal): 0.196 µM
- TGI (RXF 393 renal): 15.1 µM
- GI50 (SF-295 CNS): 11.1 µM
- TGI (SF-295 CNS): 26.2 µM
- GI50 (PC-3 prostate): 18.1 µM
- TGI (PC-3 prostate): 35.4 µM
- GI50 (COLO 205 colon): < 0.01 µM
- TGI (COLO 205 colon): 0.0258 µM
- GI50 (HCT-15 colon): 0.301 µM
- TGI (HCT-15 colon): > 100 µM
- GI50 (MOLT-4 leukemia): 14.8 µM
- TGI (MOLT-4 leukemia): 31.7 µM
- GI50 (NCI-H322M lung): 0.0325 µM
- TGI (NCI-H322M lung): 15.5 µM
- GI50 (MDA-MB-231 breast): < 0.01 µM
- TGI (MDA-MB-231 breast): 1.02 µM
- GI50 (LOX IMVI melanoma): < 0.01 µM
- TGI (LOX IMVI melanoma): 0.259 µM
- GI50 (SK-MEL-28 melanoma): < 0.01 µM
- TGI (SK-MEL-28 melanoma): < 0.01 µM
- GI50 (RPMI-8226 leukemia): 2.16 µM
- TGI (RPMI-8226 leukemia): 20.9 µM
- GI50 (EKVX NSCLC): 0.153 µM
- TGI (EKVX NSCLC): 17.8 µM
- GI50 (KM12 colon): < 0.01 µM
- TGI (KM12 colon): 17.9 µM
- GI50 (DU-145 prostate): 2.14 µM
- TGI (DU-145 prostate): 22.4 µM
- GI50 (HS 578T breast): 1.22 µM
- TGI (HS 578T breast): 7.01 µM
- GI50 (T-47D breast): 15.2 µM
- TGI (T-47D breast): 43.1 µM
- GI50 (MALME-3M melanoma): < 0.01 µM
- TGI (MALME-3M melanoma): < 0.01 µM
- GI50 (HCC-2998 colon): < 0.01 µM
- TGI (HCC-2998 colon): 0.0101 µM
- GI50 (UO-31 renal): 0.0408 µM
- TGI (UO-31 renal): 20.2 µM
- GI50 (HCT-116 colon): < 0.01 µM
- TGI (HCT-116 colon): 0.191 µM
- GI50 (HL-60(TB) leukemia): < 0.01 µM
- TGI (HL-60(TB) leukemia): < 0.01 µM
- GI50 (SF-539 CNS): 0.288 µM
- TGI (SF-539 CNS): 11.7 µM
- GI50 (UACC-257 melanoma): < 0.01 µM
- TGI (UACC-257 melanoma): < 0.01 µM
- GI50 (U251 glioblastoma): 0.0466 µM
- TGI (U251 glioblastoma): 10.6 µM
- GI50 (SF-268 CNS): 9.41 µM
- TGI (SF-268 CNS): 22.9 µM
- GI50 (MCF7 breast): 11.5 µM
- TGI (MCF7 breast): 47.2 µM
- GI50 (SN12C renal): < 0.01 µM
- TGI (SN12C renal): 17.9 µM
- GI50 ([…]-0 renal): 1.23 µM
- TGI (786-0 renal): 20.7 µM
- GI50 (NCI-H23 lung): < 0.01 µM
- TGI (NCI-H23 lung): 0.077 µM
- GI50 (OVCAR-4 ovarian): 4.22 µM
- TGI (OVCAR-4 ovarian): 38.3 µM
- GI50 (HOP-62 NSCLC): 0.0128 µM
- TGI (HOP-62 NSCLC): 15.3 µM
- GI50 (CCRF-CEM leukemia): 13.3 µM
- TGI (CCRF-CEM leukemia): 27 µM
- GI50 (SW-620 colon): < 0.01 µM
- TGI (SW-620 colon): 12.5 µM
- GI50 (HT29 colon): < 0.01 µM
- TGI (HT29 colon): 14.3 µM
- GI50 (SK-MEL-5 melanoma): < 0.01 µM
- TGI (SK-MEL-5 melanoma): 15.8 µM
- GI50 (ACHN renal): 7.88 µM
- TGI (ACHN renal): > 100 µM
- GI50 (OVCAR-8 ovarian): 2.6 µM
- TGI (OVCAR-8 ovarian): 18.2 µM
- GI50 (OVCAR-3 ovarian): 11.2 µM
- TGI (OVCAR-3 ovarian): 29.1 µM
- GI50 (K-562 leukemia): 0.0267 µM
- TGI (K-562 leukemia): 14.7 µM
- GI50 (BT-549 breast): 10 µM
- TGI (BT-549 breast): 25.4 µM
